According to article PMC10034409 (Frontiers in Pharmacology, 2023):
“Also recorded” adds a separate entry of the source.

Experiments:
AChE = target: T1, AChE (Homo sapiens, UniProt P22303); assay: biochemical; format: biochemical; conditions: for AChE IC50 / IC50: mean ± SEM of 3 experiments; for Ki: mean ± SEM, mean of four values from Lineweaver-Burk plot, its secondary re-plots and Dixon plot
T1 construct: purchased Sigma Aldrich (Steinheim, Germany)
Method: (§1) The test compounds were prepared fresh immediately before each experiment. Test compounds were added to 150 µl […] phosphate buffer (pH 8.0), 200 µl methanol, and 20 µl of the test enzymes and were incubated at 25°C for 15 min. A sample with an equal amount of solvent (ethanol) in place of the test compounds served as a negative control. 10 μl of DTNB reagent was added to the samples, and the reaction was initiated by adding 10 μl acetylthiocholine (ATCh) or butyrylthiocholine (BTCh) for the estimation of AChE and BChE, respectively. All the experiments were conducted in triplicate. […] The rate of enzyme inhibition was calculated as the change in optical density per minute (OD/min).
(§2) The enzyme inhibition activities of serially diluted concentrations of test compounds were measured, and the IC50 values were calculated using EZ-Fit Enzyme Kinetics Program.
(§3) The dissociation constant (Ki) values, which signified the dissociation of the enzyme-inhibitor complex into free enzyme and inhibitor, were also determined. […] These velocities were obtained over a range of substrate concentrations between 0.1 and 0.4 mM for ATCh and 0.05 and 0.2 mM for BTCh. The assay conditions for measurement of the residual activities of all inhibitors were identical to the aforementioned spectrophotometric assay procedure, except that the fixed concentrations of inhibiting compounds were used in the assay medium. Assays were conducted in triplicate at each concentration of the inhibitor.
(§4) The inhibition patterns of tested coumarins were determined by the graphical views of Dixon plots, Lineweaver-Burk plots, and their secondary re-plots. […] The linear regression analysis values, correlation coefficient, slope, intercept, and standard errors were obtained using the same software. Two different methods were applied to monitor the effects of the test sample on both Michaelis constant (K m ) and maximum velocity (V max) values. […] The secondary re-plots of the Lineweaver-Burk were also constructed in two ways; firstly, the reciprocal of apparent V max (1/V maxapp ) values were determined at each intersection point for every inhibitor concentration line on the y-axis of the Lineweaver-Burk plot and then re-plotted against different concentrations of the respective inhibitor. […] The secondary re-plot of the Dixon plot was constructed as the slope of each line of substrate concentration in the original Dixon plot against the reciprocals of substrate concentrations.

BChE = target: T2, BChE (Homo sapiens, UniProt P06276); assay: biochemical; format: biochemical; conditions: for Ki: mean ± SEM, mean of four values from Lineweaver-Burk plot, its secondary re-plots and Dixon plot
T2 construct: purchased Sigma Aldrich (Steinheim, Germany)
T2 sequence (P06276 29-602): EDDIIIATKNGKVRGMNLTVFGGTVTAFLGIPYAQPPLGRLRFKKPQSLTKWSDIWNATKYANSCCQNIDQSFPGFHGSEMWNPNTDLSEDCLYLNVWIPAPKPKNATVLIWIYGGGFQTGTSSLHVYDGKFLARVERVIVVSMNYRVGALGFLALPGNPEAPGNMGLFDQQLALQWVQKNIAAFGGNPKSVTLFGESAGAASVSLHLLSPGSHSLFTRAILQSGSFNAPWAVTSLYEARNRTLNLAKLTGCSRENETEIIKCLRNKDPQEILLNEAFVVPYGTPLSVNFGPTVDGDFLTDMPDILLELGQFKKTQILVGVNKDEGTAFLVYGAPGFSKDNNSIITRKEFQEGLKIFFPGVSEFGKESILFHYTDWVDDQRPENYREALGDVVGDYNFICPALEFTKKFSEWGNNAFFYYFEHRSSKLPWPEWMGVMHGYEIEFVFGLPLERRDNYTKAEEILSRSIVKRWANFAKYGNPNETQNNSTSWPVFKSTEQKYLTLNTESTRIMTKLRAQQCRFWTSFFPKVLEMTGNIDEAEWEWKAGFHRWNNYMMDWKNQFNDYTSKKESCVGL
Method: as §1, §2, §3, §4

T1 sequence (P22303 32-614): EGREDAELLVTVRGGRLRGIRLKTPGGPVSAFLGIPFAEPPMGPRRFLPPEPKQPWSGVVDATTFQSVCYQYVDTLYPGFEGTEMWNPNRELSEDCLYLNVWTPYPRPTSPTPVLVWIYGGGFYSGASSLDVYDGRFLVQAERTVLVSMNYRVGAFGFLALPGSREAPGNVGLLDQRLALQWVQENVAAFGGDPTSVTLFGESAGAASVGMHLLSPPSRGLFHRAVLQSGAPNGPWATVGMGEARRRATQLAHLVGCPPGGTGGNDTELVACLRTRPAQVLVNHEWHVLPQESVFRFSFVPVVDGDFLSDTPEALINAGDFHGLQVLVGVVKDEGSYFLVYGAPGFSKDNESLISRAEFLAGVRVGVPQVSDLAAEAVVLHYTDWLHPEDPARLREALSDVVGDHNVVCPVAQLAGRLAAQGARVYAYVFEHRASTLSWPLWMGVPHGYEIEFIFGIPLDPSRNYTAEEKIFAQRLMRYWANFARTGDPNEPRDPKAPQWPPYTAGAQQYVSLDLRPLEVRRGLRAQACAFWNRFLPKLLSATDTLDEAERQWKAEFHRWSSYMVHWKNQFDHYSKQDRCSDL

Row | SMILES | AChE IC50 (AChE) | AChE IC50 (AChE; listed as 2′-O-ethylmurrangatin (1)) | BChE IC50 (BChE; mean ± SEM of 3 experiments) | IC50 (BChE; mean ± SEM of 3 experiments) | Type of inhibition of AChE (in words) (AChE) | IC50 (AChE) | Ki (AChE) | AChE Type of inhibition (AChE; table abbreviations) | Type of inhibition of BChE (in words) (BChE) | Ki (BChE) | BChE Type of inhibition (BChE; table abbreviations)
1 | C=C(C)[C@@H](OCC)[C@@H](O)c1c(OC)ccc2ccc(=O)oc12 [2′-O-Ethylmurrangatin (1), 2′-O-ethylmurrangatin] | No activity upto 1 mM | not active at 1 mM conc; also recorded: did not show any inhibition | very weak activity | 843 ± 13 µM | – | – | – | – | – | – | –
2 | COc1ccc2ccc(=O)oc2c1C(O)C(=O)C(C)C (centres unmarked) [Murranganone (2), murranganone] | – | – | – | 74.3 ± 0.75 µM | pure non-competitive inhibition | 79.1 ± 2.02 µM | 50 ± 0.58 µM | NC ^d | mixed-type inhibition | 22 ± 0.44 µM | LM ^e
3 | COc1ccc2ccc(=O)oc2c1C(OC(=O)CC(C)C)C(=O)C(C)C (centres unmarked) [Paniculatin (3), paniculatin] | – | – | – | – | mixed-type inhibitor | 31.6 ± 0.03 µM | 43 ± 0.65 µM | – | mixed-type inhibitor | 22 ± 0.6 µM | –
